Patent US5324725A, “7-fused 2-(piperazinoalkyl) indole derivatives, intermediates and compositions thereof” (Kali-Chemie Pharma GmbH, priority 1991, dated 1994)

System: P.A.F.-induced aggregation of platelets from rabbit blood
Assay: Anti-P.A.F. effect in vitro: inhibition of P.A.F.-induced platelet aggregation
Format: cell-based, rabbit (New Zealand hybrids)
Conditions: Oryctolagus cuniculus, Platelet, test substance concentration 10^-5 mol/l
How it was run: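 Washed, aspirin-treated rabbit platelets (4×10^9/ml stock suspension) in modified Tyrode buffer, pH 7.4, preincubated 90 s with test compound at 10^-5 mol/l final, then challenged with P.A.F. Aggregation followed 4–5 min in an aggregometer. Inhibition expressed in % relative to P.A.F.-only (100%) and platelet-only (0%) controls.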

| Compound | inhibition at 10 µM [%] |
| --- | --- |
| Cc1ccnc(N2CCN(CCc3c(C)n4c5c(cc(C(=O)C(C)C)cc35)CCC4)CC2)c1 [Example 27, 5,6-dihydro-2-methyl-8-(2-methyl-1-oxopropyl)-1-{2-[4-(4-methylpyridin-2-yl)piperazin-1-yl]ethyl}-4H-pyrrolo-[3,2,1-ij]quinoline] | 83 |
| Cc1ccnc(N2CCN(CCc3c(C)n4c5c(cc(N)cc35)CCC4)CC2)c1 [Example 20, 8-Amino-5,6-dihydro-2-methyl-1-{2-[4-(4-methylpyridin-2-yl)piperazin-1-yl]ethyl}-4H-pyrrolo[3,2,1-ij]quinoline] | 17 |
| Cc1ccnc(N2CCN(CCc3c(-c4ccc(F)cc4)n4c5c(cccc35)CCC4)CC2)c1 [Example 47] | 95 |
| Cc1ccnc(N2CCN(CCc3c(C)n4c5c(cccc35)CC4C)CC2)c1 (centres unmarked) [Example 33] | 71 |
| Cc1ccnc(N2CCN(CCc3c(C)n4c5c(cccc35)CCC4c3ccccc3)CC2)c1 (centres unmarked) [Example 3, 5,6-dihydro-2-methyl-4-phenyl-1-{2-[4-(4-methylpyridine-2-yl)piperazin-1-yl]-ethyl}-4H-pyrrolo[3,2,1-ij]quinoline] | 100 |
| Cc1ccnc(N2CCN(CCc3c(C)n4c5c(cc(NC(=O)c6ccccc6)cc35)CCC4)CC2)c1 [Example 25, 8-Benzoylamino-5,6-dihydro-2-methyl-1-{2-[4-(4-methylpyridin-2-yl)piperazin-1-yl]-ethyl}-4H-pyrrolo[3,2,1-ij]quinoline] | 43 |
| Cc1ccnc(N2CCN(CC(O)c3c(C4CCCCC4)n4c5c(cccc35)CCC4)CC2)c1 (centres unmarked) [Example 85] | 100 |
| C=CCCC1CCc2cccc3c(CCN4CCN(c5cc(C)ccn5)CC4)c(C)n1c23 (centres unmarked) [Example 62] | 70 |
| COc1ccc(-c2c(CCN3CCN(c4cc(C)ccn4)CC3)c3cccc4c3n2CCC4)cc1 [Example 7, 2-(4-methoxy-phenyl)-1-{2-[4-(4-methylpyridin-2-yl)piperazin-1-yl]ethyl}-5,6-dihydro-4H-pyrrolo[3,2,1-ij]quinoline] | 100 |
| Cc1ccnc(N2CCN(CCc3c(C)n4c5c(cccc35)CCC4)CC2)c1 [Example 1, 5,6-Dihydro-2-methyl-1-{2-[4-(4-methylpyridin-2-yl)piperazin-1-yl]ethyl}-4H-pyrrolo[3,2,1-ij]quinoline] | 97 |
| COc1ccc(C2CCc3cc(OC)cc4c(CCN5CCN(c6cc(C)ccn6)CC5)c(C)n2c34)cc1 (centres unmarked) [Example 65] | 100 |
| Cc1ccnc(N2CCN(CCc3c(C)n4c5c(cc(C(=O)C6CCCCC6)cc35)CCC4)CC2)c1 [Example 83] | 100 |
| Cc1ccnc(N2CCN(CCc3c(C)n4c5c(cc(CC(C)C)cc35)CCC4)CC2)c1 [Example 21, 5,6-Dihydro-2-methyl-8-(2-methylpropyl)-1-{2-[4-(4-methylpyridin-2-yl)piperazin-1-yl]ethyl}-4H-pyrrolo[3,2,1-ij]quinoline] | 91 |
| Cc1ccnc(N2CCN(CCc3c(-c4ccc(O)cc4)n4c5c(cccc35)CCC4)CC2)c1 [Example 8, 2-(4-hydroxyphenyl)-1-{2-[4-(4-methylpyridin-2-yl)piperazin-1-yl]ethyl}-5,6-dihydro-4H-pyrrolo[3,2,1-ij]quinoline] | 100 |
| Cc1ccnc(N2CCN(CCc3c(C)n4c5c(cccc35)CCC4C3CCCCC3)CC2)c1 (centres unmarked) [Example 87] | 100 |
| Cc1ccnc(N2CCN(CCc3c(C)n4c5c(cc(NC(=O)C(C)C)cc35)CCC4)CC2)c1 [Example 60] | 44 |
| CCCCCCCC1CCc2cccc3c(CCN4CCN(c5cc(C)ccn5)CC4)c(C)n1c23 (centres unmarked) [Example 4, 4-n-heptyl-5,6-dihydro-2-methyl-1-{2-[4-(4-methylpyridin-2-yl)piperazin-1-yl]ethyl}-4H-pyrrolo[3,2,1-ij]-quinoline] | 58 |
| Cc1ccnc(N2CCN(CCc3c(C)n4c5c(cccc35)SCC4)CC2)c1 [Example 11, 5-Methyl-6-{2-[4-(4-methylpyridin-2-yl)piperazin-1-yl]ethyl}-2,3-dihydro-pyrrolo[1,2,3-de]-1,4-benzo-thiazine] | 89 |
| Cc1ccnc(N2CCN(CCc3c(C)n4c5c(ccc(Cl)c35)OCC4)CC2)c1 [Example 35] | 56 |
| CCc1c(CCN2CCN(c3cc(C)ccn3)CC2)c2cccc3c2n1CCC3 [Example 15, 2-Ethyl-5,6-dihydro-1-{2-[4-(4-methylpyridin-2-yl)piperazin-1-yl]ethyl}-4H-pyrrolo[3,2,1-ij]quinoline] | 85 |
| Cc1ccnc(N2CCN(CCc3c(C)n4c5c(cc(C)cc35)CCC4)CC2)c1 [Example 54] | 75 |
| CC(C)=Cc1cc2c3c(c1)c(CCN1CCN(c4cc(C)ccn4)CC1)c(C)n3CCC2 [Example 26, 5,6-Dihydro-2-methyl-8-(2-methylprop-1-enyl)-1-{2-[4-(4-methylpyridin-2-yl)piperazin-1-yl]ethyl}-4H-pyrrolo[3,2,1-ij]quinoline] | 89 |
| CCCCC1CCc2cc(O)cc3c(CCN4CCN(c5cc(C)ccn5)CC4)c(C)n1c23 (centres unmarked) [Example 76] | 99 |
| Cc1ccnc(N2CCN(CCc3c(C)n4c5c(cc(C(=O)c6ccccc6)cc35)CCC4)CC2)c1 [Example 66] | 100 |

| Compound | inhibition at 10 µM [%] |
| --- | --- |
| Cc1ccnc(N2CCN(CCc3c(C)n4c5c(ccc(C(=O)C(C)C)c35)SCC4)CC2)c1 [Example 91] | 58 |
| CCCCC1CCc2cc(C(=O)C(C)C)cc3c(CCN4CCN(c5cc(C)ccn5)CC4)c(C)n1c23 (centres unmarked) [Example 23, 4-n-Butyl-5,6-dihydro-8-(2-methyl-1-oxopropyl)-2-methyl-1-{2-[4-(4-methylpyridin-2-yl)piperazin-1-yl]ethyl}-4H-pyrrolo[3,2,1-ij]quinoline] | 100 |
| Cc1ccnc(N2CCN(CCc3c(C)n4c5c(cccc35)CCC4c3ccc(O)cc3)CC2)c1 (centres unmarked) [Example 61] | 83 |
| Cc1ccnc(N2CCN(CCc3c(C)n4c5c(c(Cl)cc(Cl)c35)OCC4)CC2)c1 [Example 79] | 71 |
| CNc1cc2c3c(c1)c(CCN1CCN(c4cc(C)ccn4)CC1)c(C)n3CCC2 [Example 80] | 72 |
| CC(=O)c1cc2c3c(c1)c(CCN1CCN(c4cc(C)ccn4)CC1)c(C)n3CCC2 [Example 67] | 76 |
| Cc1cc2c3c(c1)c(CCN1CCC(C(=O)c4ccc(F)cc4)CC1)c(C)n3CCC2 [Example 55] | 40 |
| Cc1ccnc(N2CCN(CCc3c(CO)n4c5c(cccc35)CCC4)CC2)c1 [Example 16, 5,6-dihydro-2-hydroxymethyl-1-{2-[4-(4-methylpyridin-2-yl)piperazin-1-yl]ethyl}-4H-pyrrolo[3,2,1-ij]quinoline] | 73 |
| Cc1ccnc(N2CCN(CCc3c(C)n4c5c(cccc35)C(C)CC4)CC2)c1 (centres unmarked) [Example 57] | 86 |
| Cc1ccnc(N2CCN(CCc3cn4c5c(cccc35)CCC4)CC2)c1 [Example 13, 5,6-Dihydro-1-{2-[4-(4-methylpyridin-2-yl)piperazin-1-yl]ethyl}-4H-pyrrolo[3,2,1-ij]quinoline] | 93 |
| Cc1ccnc(N2CCN(CCc3c(C)n4c5c(cc(Br)cc35)CCC4)CC2)c1 [Example 9, 8-Bromo-2-methyl-1-{2-[4-(4-methylpyridin-2-yl)piperazin-1-yl]ethyl}-5,6-dihydro-4H-pyrrolo[3,2,1-ij]quinoline] | 73 |
| CC(=O)Oc1cc2c3c(c1)c(CCN1CCN(c4cc(C)ccn4)CC1)c(C)n3CCC2 [Example 24, 8-Acetoxy-5,6-dihydro-2-methyl-1-{2-[4-(4-methyl-pyridin-2-yl)piperazin-1-yl]ethyl}-4H-pyrrolo[3,2,1-ij]quinoline] | 80 |
| Cc1ccnc(N2CCN(CCc3c(-c4ccc(OCCCCO)cc4)n4c5c(cccc35)CCC4)CC2)c1 [Example 12, 2-[4-(4-Hydroxybutyloxy)-phenyl]-1-{2-[4-(4-methylpyridin-2-yl)piperazin-1-yl]ethyl}-5,6-dihydro-4H-pyrrolo[3,2,1-ij]quinoline] | 100 |
| Cc1ccnc(N2CCN(CCc3c(C)n4c5c(cc(C(O)C(C)C)cc35)CCC4)CC2)c1 (centres unmarked) [Example 19, 5,6-Dihydro-8-(1-hydroxy-2-methylpropyl)-2-methyl-1-{2-[4-(4-methylpyridin-2-yl)piperazin-1-yl]ethyl}-4H-pyrrolo-[3,2,1-ij]quinoline] | 83 |
| CCCCC1CCc2cc(OC)cc3c(CCN4CCN(c5cc(C)ccn5)CC4)c(C)n1c23 (centres unmarked) [Example 63] | 98 |
| Cc1ccnc(N2CCN(CCc3c(C)n4c5c(cc(Cc6ccccc6)cc35)CCC4)CC2)c1 [Example 77] | 100 |
| COc1ccc(C2CCc3cccc4c(CCN5CCN(c6cc(C)ccn6)CC5)c(C)n2c34)cc1 (centres unmarked) [Example 59] | 89 |
| Cc1ccnc(N2CCN(CCc3c(C)n4c5c(c(C(O)C(C)C)ccc35)SCC4)CC2)c1 (centres unmarked) [Example 89] | 100 |
| CCc1c(C(O)CN2CCN(c3cc(C)ccn3)CC2)c2cccc3c2n1CCC3 (centres unmarked) [Example 14, 2-Ethyl-5,6-dihydro-1-{2-[4-(4-methylpyridin-2-yl)piperazin-1-yl]-1-hydroxyethyl}-4H-pyrrolo[3,2,1-ij]quinoline] | 86 |
| Cc1ccnc(N2CCN(CCc3c(C)n4c5c(ccc(C(O)C(C)C)c35)SCC4)CC2)c1 (centres unmarked) [Example 90] | 64 |
| Cc1c(CCN2CCN(c3ccccn3)CC2)c2cccc3c2n1CCC3 [Example 37] | 28 |
| Cc1ccnc(N2CCN(CCc3c(C)n4c5c(cc([N+](=O)[O-])cc35)CCC4)CC2)c1 [Example 10, 2-Methyl-8-nitro-1-{2-[4-(4-methylpyridin-2-yl)-piperazin-1-yl]ethyl}-5,6-dihydro-4H-pyrrolo[3,2,1-ij]quinoline] | 94 |
| CCCCC1CCc2cccc3c(CCN4CCN(c5cc(C)ccn5)CC4)c(C)n1c23 (centres unmarked) [Example 73, 4-n-butyl-5,6-dihydro-2-methyl-1-{2-[4-(4-methylpyridin-2-yl)piperazin-1-yl]ethyl}-4H-pyrrolo[3,2,1-ij]quinoline] | 99 |
